# Where a name gives a salt, the structure may show the parent alone.
# Tests used:
# Format in all cases: in vivo
# mice = test: Tail-flick test (radiant heat)
# Procedure: Radiant heat was applied using a beam of high-intensity light focused on a tail spot. The response time, defined as the interval between the onset of the stimulus and the tail flick, was measured electronically(to the nearest 0.1 second). The beam intensity was set at a level giving a mean control reaction time of 3.8±0.4 seconds. […] The percentage of inhibition was determined by the following equation: Inhibition(%) =(Reaction time of the treated group - Reaction time of the control group)/(Reaction time of the control group)x 100 [formula]
# test animals = test: Behavior analysis (side-effect or toxicity scores); parameters: key to Sedation / Dyspnoea / Vasodilation / Convulsion / Salivation / Urination: behavior score; higher number = greater side effects; settings: behavior score; for Convulsion / Salivation / Urination: normal value 0; for Dyspnoea / Ptosis / Sedation / Vasodilation: normal value 4
# Text: In order to monitor a harmful side-effect or toxicity of the compounds having the formula(I), various behavioral changes in the test animals were observed. […] The higher the number is, the greater the side effects are.
# KTC-ICR mice [1] = test: acetic acid induced writhing test; settings: Mus musculus; oral; 0.9% acetic acid i.p. 60 minutes later; writhings during 10 minutes; mice 20 to 25g; Examples 1 to 32
# Procedure: (§1) The KTC-ICR mice derived from Charles River Breeding Laboratory in the United States and provided by Experimental Animal Laboratory of Korea Research Institute of Chemical Technology were used as test animals. […] They were tested after having been adjusted to the testing environment for a week. Food and water were given freely; and illumination was maintained on a 12-hour cycle.
# (§2) Experiments were performed in two ways: that is, the acetic acid induced writhing test and the phenyl-1,4-benzoquinone(PBQ) induced writhing test.
# Solutions for the acetic acid induced writhing test were prepared by dissolving one of the end products prepared in Examples […] in a saline solution containing 1% by weight of Tween 80 to have a concentration of 5mg/mℓ and diluting it serially with the saline solution. The test solutions were administered orally in a dose of 0.3mℓ per 30g of body weight, using the 5 ICR mice for each test. 60 minutes later, 0.9% acetic acid solution was administered intraperitoneally in a dose of 0.1mℓ per 30g of body weight. 3 minutes thereafter, the number of writhings generated during a period of 10 minutes due to the administration of acetic acid was measured. For comparison purpose, initially, saline solution alone was administered orally to the control group. 60 minutes thereafter, 0.9% acetic acid solution was administered intraperitoneally to the control group.
# (§3) The number of writhings suffered by the test group was compared with that of the control group; and the analgesic effect was measured in terms of the percentage of inhibition of writhing(I. W.). I. W. (%) =(A - B)/(A)x 100 [formula] A : the number of writhings suffered by the control group, B : the number of writhings suffered by the test group.
# (§4) These ED50 values for the test compounds are shown in the last column of Table 1.
# KTC-ICR mice [2] = test: phenyl-1,4-benzoquinone(PBQ) induced writhing test; settings: Mus musculus; oral; 0.02% PBQ i.p. 60 minutes later; writhings during 5 minutes; mice 10 to 15g; Examples 33 to 46
# Procedure: as §1, §2
# Alternatively, solutions for the PBQ induced writhing test were prepared by dissolving one of the products synthesized in Examples 33 to 46 in a mixture of Tween 80, alcohol and distilled water (1:5:94); and administered orally to the 5 ICR mice for each test in a dose of 0.3mℓ per 30g of body weight. 60 minutes later, 0.02% PBQ solution was administered intraperitoneally in a dose of 0.1mℓ per 30g of body weight of the test animals. 5 minutes thereafter, at the temperature of 40°C, the number of writhings occurred during a period of 5 minutes due to the PBQ solution administered was measured. For comparison, only the mixture of Tween 80, alcohol and distilled water was administered orally to the control group; and, after 60 minutes, the PBQ solution was administered intraperitoneally to the control group in the same manner as mentioned above.
# as §3, §4
smiles,measurement,setting,value
"NCCOc1ccc(CC(=O)NCCCc2cccc(C(F)(F)F)c2)cc1N [Example 42, N-{3-(3-trifluoromethylphenyl)propyl}-4-(2-aminoethoxy)-3-aminophenylacetamide]",Inhibition(%),"mice; p. o., dose 100 mg/Kg",40%
same,Convulsion,test animals; dose 11.1mg/Kg,0
same,Salivation,test animals; dose 11.1mg/Kg,0
same,Urination,test animals; dose 11.1mg/Kg,0
same,Dyspnoea,test animals; dose 11.1mg/Kg,4
same,Ptosis,test animals; dose 11.1mg/Kg,4
same,Sedation,test animals; dose 11.1mg/Kg,4
same,Vasodilation,test animals; dose 11.1mg/Kg,4
same,Convulsion,test animals; dose 33.3mg/Kg,0
same,Salivation,test animals; dose 33.3mg/Kg,0
same,Urination,test animals; dose 33.3mg/Kg,0
same,Dyspnoea,test animals; dose 33.3mg/Kg,4
same,Ptosis,test animals; dose 33.3mg/Kg,4
same,Sedation,test animals; dose 33.3mg/Kg,4
same,Vasodilation,test animals; dose 33.3mg/Kg,4
same,Convulsion,test animals; dose 100mg/Kg,0
same,Salivation,test animals; dose 100mg/Kg,0
same,Urination,test animals; dose 100mg/Kg,0
same,Dyspnoea,test animals; dose 100mg/Kg,4
same,Ptosis,test animals; dose 100mg/Kg,7
same,Sedation,test animals; dose 100mg/Kg,7
same,Vasodilation,test animals; dose 100mg/Kg,4
Cc1ccc(CCCNC(=O)Cc2ccc(OCCN)cc2)cc1C [Example 2],ED50,KTC-ICR mice [1],3.98 mg/kg
NCCOc1ccc(CC(=O)NCCCc2ccc(F)cc2)cc1N [Example 40-HCl],Inhibition(%),"mice; p. o., dose 50 mg/Kg",67%
Cc1ccc(CCCNC(=O)Cc2ccc(OCCN)c(Cl)c2)cc1 [Example 12],ED50,KTC-ICR mice [1],4.7 mg/kg
"Cc1ccc(CCCNC(=O)Cc2ccc(OCCN)c([N+](=O)[O-])c2)cc1C [Example 43, N-{3-(3,4-dimethylphenyl)propyl}-4-(2-aminoethoxy)-3-nitrophenylacetamide]",ED50,KTC-ICR mice [2],22.5 mg/kg
COc1cc(CC(=O)NCCc2cc(C)cc(C)c2)ccc1OCCN [Example 17],ED50,KTC-ICR mice [1],0.77 mg/kg
COc1cc(CC(=O)NCCCc2ccc(C)cc2)ccc1OCCN [Example 9],ED50,KTC-ICR mice [1],1.73 mg/kg
"COc1cc(CC(=O)NCCCc2cccc(C(F)(F)F)c2)ccc1OCCN [Example 26, N-{3-(3-trifluoromethylphenyl)propyl}-4-(2-aminoethoxy)-3-methoxyphenylacetamide]",ED50,KTC-ICR mice [1],1.54 mg/kg
"NCCOc1ccc(CC(=O)NCCCc2ccc(Cl)cc2)cc1 [Example 19, N-{3-(4-chlorophenyl)propyl}-4-(2-aminoethoxy)phenylacetamide]",ED50,KTC-ICR mice [1],0.03 mg/kg
"COc1cc(CC(=O)NCCCc2ccc(Cl)cc2)ccc1OCCN [Example 18, N-{3-(4-chlorophenyl)propyl}-4-(2-aminoethoxy)-3-methoxyphenylacetamide]",ED50,KTC-ICR mice [1],0.4 mg/kg
"Cc1cccc(CCCNC(=O)Cc2ccc(OCCN)c(N)c2)c1 [Example 38, N-{3-(3-methylphenyl)propyl}-4-(2-aminoethoxy)-3-aminophenylacetamide]",ED50,KTC-ICR mice [2],22.1 mg/kg
same,Convulsion,test animals; dose 6.7mg/Kg,0
same,Salivation,test animals; dose 6.7mg/Kg,0
same,Urination,test animals; dose 6.7mg/Kg,0
same,Dyspnoea,test animals; dose 6.7mg/Kg,4
same,Ptosis,test animals; dose 6.7mg/Kg,4
same,Sedation,test animals; dose 6.7mg/Kg,4
same,Vasodilation,test animals; dose 6.7mg/Kg,4
same,Convulsion,test animals; dose 20mg/Kg,0
same,Salivation,test animals; dose 20mg/Kg,0
same,Urination,test animals; dose 20mg/Kg,0
same,Dyspnoea,test animals; dose 20mg/Kg,4
same,Ptosis,test animals; dose 20mg/Kg,5
same,Sedation,test animals; dose 20mg/Kg,4
same,Vasodilation,test animals; dose 20mg/Kg,4
same,Convulsion,test animals; dose 60mg/Kg,0
same,Salivation,test animals; dose 60mg/Kg,0
same,Urination,test animals; dose 60mg/Kg,0
same,Dyspnoea,test animals; dose 60mg/Kg,7
same,Ptosis,test animals; dose 60mg/Kg,7
same,Sedation,test animals; dose 60mg/Kg,6
same,Vasodilation,test animals; dose 60mg/Kg,4
COc1cc(CC(=O)NCCCc2ccc(C)c(C)c2)ccc1OCCN [Example 1-l-tartarate],Inhibition(%),"mice; p. o., dose 1.25 mg/Kg",50%
same,Inhibition(%),"mice; p. o., dose 2.5 mg/Kg",90%
"COc1cc(CNC(=O)CCCC/C=C/C(C)C)ccc1O [Capsaicin, trans-8-methyl-N-vanillyl-6-nonenamide, reference compound]",Inhibition(%),"mice; mouse, in vivo, 25 mg/kg",90%
Cc1ccc(CCCCNC(=O)Cc2ccc(OCCN)c(F)c2)cc1C [Example 32],ED50,KTC-ICR mice [1],1.44 mg/kg
COc1cc(CC(=O)NCCCc2cc(C)cc(C)c2)ccc1OCCN [Example 13],ED50,KTC-ICR mice [1],4.6 mg/kg
"Cc1ccc(CCCNC(=O)Cc2ccc(OCCN)c(N)c2)cc1C [Example 37, N-{3-(3,4-dimethylphenyl)propyl}-4-(2-aminoethoxy)-3-aminophenylacetamide]",ED50,KTC-ICR mice [2],22.7 mg/kg
same,Convulsion,test animals; dose 6.7mg/Kg,0
same,Salivation,test animals; dose 6.7mg/Kg,0
same,Urination,test animals; dose 6.7mg/Kg,0
same,Dyspnoea,test animals; dose 6.7mg/Kg,4
same,Ptosis,test animals; dose 6.7mg/Kg,4
same,Sedation,test animals; dose 6.7mg/Kg,4
same,Vasodilation,test animals; dose 6.7mg/Kg,4
same,Convulsion,test animals; dose 20mg/Kg,0
same,Salivation,test animals; dose 20mg/Kg,0
same,Urination,test animals; dose 20mg/Kg,0
same,Dyspnoea,test animals; dose 20mg/Kg,4
same,Ptosis,test animals; dose 20mg/Kg,5
same,Sedation,test animals; dose 20mg/Kg,4
same,Vasodilation,test animals; dose 20mg/Kg,4
same,Convulsion,test animals; dose 60mg/Kg,0
same,Salivation,test animals; dose 60mg/Kg,0
same,Urination,test animals; dose 60mg/Kg,0
same,Dyspnoea,test animals; dose 60mg/Kg,4
same,Ptosis,test animals; dose 60mg/Kg,6
same,Sedation,test animals; dose 60mg/Kg,6
same,Vasodilation,test animals; dose 60mg/Kg,4
Cc1ccc(CCCNC(=O)Cc2ccc(OCCN)cc2)cc1 [Example 10],ED50,KTC-ICR mice [1],7.9 mg/kg
"COc1cccc(CCCNC(=O)Cc2ccc(OCCN)c(OC)c2)c1 [Example 27, N-{3-(3-methoxyphenyl)propyl}-4-(2-aminoethoxy)-3-methoxyphenylacetamide]",ED50,KTC-ICR mice [1],1.25 mg/kg
"COc1cc(CC(=O)NCCCc2ccc(Cl)c(Cl)c2)ccc1OCCN [Example 24, N-{3-(3,4-dichlorophenyl)propyl}-4-(2-aminoethoxy)-3-methoxyphenylacetamide]",ED50,KTC-ICR mice [1],0.66 mg/kg
Cc1cccc(CCCNC(=O)Cc2ccc(OCCN)c(F)c2)c1 [Example 7],ED50,KTC-ICR mice [1],2.3 mg/kg
Cc1cccc(CCCNC(=O)Cc2ccc(OCCN)cc2)c1 [Example 6],ED50,KTC-ICR mice [1],26.3 mg/kg
Cc1cccc(CCCCNC(=O)Cc2ccc(OCCN)cc2)c1 [Example 31],ED50,KTC-ICR mice [1],3.3 mg/kg
Cc1ccc(CCCNC(=O)Cc2ccc(OCCN)c(F)c2)cc1C [Example 3],ED50,KTC-ICR mice [1],2.95 mg/kg
Cc1cc(C)cc(CCCNC(=O)Cc2ccc(OCCN)c(Cl)c2)c1 [Example 16],ED50,KTC-ICR mice [1],123 mg/kg
Cc1ccc(CCCNC(=O)Cc2ccc(OCCN)c(Cl)c2)cc1C [Example 4],ED50,KTC-ICR mice [1],4.78 mg/kg
"COc1cc(CC(=O)NCCCc2cccc(OCc3ccccc3)c2)ccc1OCCN [Example 28, N-{3-(3-benzyloxyphenyl)propyl}-4-(2-aminoethoxy)-3-methoxyphenylacetamide]",ED50,KTC-ICR mice [1],28.8 mg/kg
"NCCOc1ccc(CC(=O)NCCCc2ccc(Cl)cc2)cc1Cl [Example 21, N-{3-(4-chlorophenyl)propyl}-4-(2-aminoethoxy)-3-chlorophenylacetamide]",ED50,KTC-ICR mice [1],0.04 mg/kg
"COc1cc(CC(=O)NCCCc2ccc3c(c2)OCO3)ccc1OCCN [Example 25, N-{3-(3,4-methylenedioxyphenyl)propyl}-4-(2-aminoethoxy)-3-methoxyphenylacetamide]",ED50,KTC-ICR mice [1],0.8 mg/kg
COc1cc(CC(=O)NCCCCc2cccc(C)c2)ccc1OCCN [Example 30],ED50,KTC-ICR mice [1],1.54 mg/kg
Cc1cc(C)cc(CCCNC(=O)Cc2ccc(OCCN)cc2)c1 [Example 14],ED50,KTC-ICR mice [1],3.16 mg/kg
"CN1C(C(=O)Nc2ccccn2)=C(O)c2ccccc2S1(=O)=O [Piroxicam, reference compound]",Inhibition(%),"mice; p. o., dose 100 mg/Kg",0%
Cc1cccc(CCCNC(=O)Cc2ccc(OCCN)c(Cl)c2)c1 [Example 8],ED50,KTC-ICR mice [1],42.6 mg/kg
"NCCOc1ccc(CC(=O)NCCCc2ccc(Cl)cc2)cc1F [Example 20, N-{3-(4-chlorophenyl)propyl}-4-(2-aminoethoxy)-3-fluorophenylacetamide]",ED50,KTC-ICR mice [1],0.07 mg/kg
